The subject of assay [1] is Staphylococcus aureus (ATCC 6538). In words: Microtiter plate antimicrobial assay (relative growth rate, A600). The class given is cell-based. The following applies: synthetic peptide; for MIC50: 10 mg/mL stock in distilled water, 10^6 CFU/mL, overnight culture 37 °C, A600, Figure 5B. The protocol:
(§1) The cell-free supernatant of P. silvilitoris or all E. coli DH5α strains containing cloned AMPs was collected after 24 h of culture and filtered through a 0.2-μm syringe (mixed cellulose esters (MCE), Merck, Darmstadt, Germany), and finally the cell-free supernatant was used for the evaluation of antimicrobial activity. The cell-free supernatant from the E. coli DH5α, harboring only the plasmid vector without the PS_AMP genes, was confirmed as a negative control to have very little effect on antimicrobial activities. The synthesized AMPs were suspended at a concentration of 10 mg/mL in distilled water and then used for antimicrobial activity.
(§2) The antimicrobial activities against S. Typhimurium (KCTC12401), E. coli (ATCC 10536), B. cereus (ATCC 11778), S. iniae (KCTC3657), S. aureus (ATCC 6538) and C. albicans (KCTC7122) were analyzed using the microtiter plate method and expressed as minimal inhibition concentration (MIC); the bacteria pre-cultured overnight (O/N) were mixed with 10^6 CFU/mL with the cell-free supernatant or the synthetic peptides, the reaction mixtures were added to the microtiter plate, and finally the reactivity was observed by the O/N culture at 37 °C. […] The relative activity of the treated samples was then expressed as a ratio of their A600 values to that of the control.Relative growth rate = A/B A: the treated sample A600 value B: non-treated (control) A600 value

Assay [2] deals with Escherichia coli (ATCC 10536). The description is as above. The class given is cell-based. Particulars: synthetic peptide, 10 mg/mL stock in distilled water, 10^6 CFU/mL, overnight culture 37 °C, Figure 5A. The protocol:
as §1, §2

The text below walks through data of paper PMC12250211, “Discovery of Novel Genes Encoding Antimicrobial Peptides from the Pedobacter silvilitoris Genome with Broad-Spectrum Antimicrobial Activity” (International Journal of Molecular Sciences, 2025).

By MIC50 is commonly meant an inhibitory concentration at the 50% level, which refers to growth in some studies and to a panel of isolates in others. A high value points to weaker potency.

Ends that are not written are not given here.

As to GLFDFFKKKDKTTDEQEALDK [PS_AMP4.2], the “estimated MIC50” value in assay [1] (test strain not printed, AMP4.1 value agrees with the S. aureus value of b25) was 3000 µg/mL.
Consider LKLKKEQIELLKKIANK [PS_AMP11.1], for which the MIC50 in assay [2] was determined as 1900 µg/mL; in assay [1] it was 2000 µg/mL.
For DKGLEKTKDNFF [PS_AMP4.1], the MIC50 in assay [1] came out at 2200 µg/mL.
